From US5703113A, “Benzopyran derivatives” (priority 1992, dated 1997) come the findings set out here.

For assay [1], the system named is potassium canal (isolated arteria mesenterica anterior). Briefly: Potassium canal binding ("bandage") and selectivity on isolated arteria mesenterica anterior of rabbits. To be noted: isolated rabbit mesenteric artery; KCl vs adrenaline contraction, TEA medium. The procedure: 1. […] Rabbits of both sexes weighing 2000-2500 g were anesthetized by a hit at the nape, the abdominal wall was cut open and the arteria mesenterica anterior was mounted after exsanguination. The artery was put into a Krebs solution of a temperature of 37° C. infiltrated with carbogene while removing the interstitial residues. Then a 2 mm wide spiral is cut from the artery and this artery stripe is prestretched in an organ pot in Krebs solution of a temperature of 37° C., infiltrated with carbogene, by a stretching of 0.5 g. In the experiment Hugo Basile type dynamometer heads, Hugo Basile type amplifiers and Perkin Elmer type potentiometer have been used for amplifying and fixing the signs. Two parallel organs were used for the qualitative tests. One of them was contracted by adding 30 mmoles of KCl after an incubation time of 1 hour, the other one by 5 μmoles of adrenaline. Then the arteries were relaxed by the cumulative addition of the substance to be examined. The system was washed with a Krebs solution containing 30 mmoles of tetraethyl ammonium bromide (TEA) and the organs were incubated for 30 minutes in a TEA-containing medium. After incubation the organs were again contracted with potassium and noradrenaline and a dilatation was induced by using the substance to be examined. In a quantitative test organs contracted with 5 μmoles of noradrenaline were relaxed with the substance to be examined and the dose inducing a 50% dilatation was determined.

The test system of another assay is normotensive rats. Briefly: Decrease of blood pressure on normotensive rats measured by average arterial tension. It is filed as in vivo, Wistar rats. Further details: Pulse: unit not given beside the values; Average arterial tension / Decrease (of average arterial tension): unit not given here. As to the method: 2. Decrease of blood pressure on normotensive rats measured by average arterial tension
Wistar rats of both sexes weighing 230-260 g were used in the experiments. The rats were narcotised by 40 mg/kg of pentobarbital. The trachea was mounted and a polyethylene canula was introduced into the trachea, vena jugularis sinester and to the arteria carotis communis sinester. The substances to be examined were introduced into the organism of the animal through the duodenum. The pulsatory, systolic and diastolic blood pressure and the pulse were continuously measured by using a Statham type tensiometer head and haemodynamic measuring system produced by the Hungarian firm Experimetria Kft. After the blood pressure has become stable 0.75 μg of adrenaline were administered intravenously to measure the effect of alpha-adrenergic receptors on the blood pressure. After the hypertension has ceased 0.1 μg/kg of isoproterenole is added in order to characterize the activity of the β-adrenerg receptors. After tachycardia has ceased the test compound was administered i.d. and the treatment with the receptor stimulants was repeated after an hour in order to characterize the effect of the test compound on adrenergic receptor subclasses.
Change of the blood pressure on normotensive rats measured on six test animals

Setting [2] is: 5 mg/kg i.d., time 0 min (baseline).
Setting [3] is: 1 mg/kg i.d., time 0 min (baseline).
The mark [4] stands for this setting: 10 mg/kg i.d., time 0 min (baseline).

For the compound `COc1cc2c(cc1Cl)[C@@H](N1CCCC1=O)[C@H](O)C(C)(C)O2` (racemic) [Example 10, (+/-)-6-chloro-7-methoxy-3,4-dihydro-2,2-dimethyl-trans-4-(2-oxo-1-pyrrolidinyl)-2H-benzo (b) pyran-3-ol], the Mechanism of effect entry in assay [1] is given as “Potassium canal activator”. For the same compound, the Selectivity entry in assay [1] is listed as “selective”. The Average arterial tension in the assay on normotensive rats (setting [2]) stood at 108 ± 15; in the assay with normotensive rats (5 mg/kg i.d., time 1 min) it was 62 ± 3; in the assay with normotensive rats (5 mg/kg i.d., time 10 min), 68 ± 6; with normotensive rats (5 mg/kg i.d., time 30 min) it was 96 ± 15; with normotensive rats (5 mg/kg i.d., time 60 min) it was 109 ± 26. The Pulse was 402 ± 4 with normotensive rats (setting [2]); 418 ± 18 in the assay on normotensive rats (5 mg/kg i.d., time 1 min); 436 ± 18 with normotensive rats (5 mg/kg i.d., time 10 min); 424 ± 10 in the assay with normotensive rats (5 mg/kg i.d., time 30 min); 396 ± 13 in the assay with normotensive rats (5 mg/kg i.d., time 60 min). The “Decrease (of average arterial tension)” value is listed as -46 in the assay on normotensive rats (5 mg/kg i.d., time 1 min); -40 in the assay with normotensive rats (5 mg/kg i.d., time 10 min); -12 with normotensive rats (5 mg/kg i.d., time 30 min); “+1” in the assay on normotensive rats (5 mg/kg i.d., time 60 min).

Turning to `CC1(C)Oc2ccc(C#N)cc2C(N2CCCC2=O)C1O` (stereo not drawn) [BRL 34915, reference compound], in assay [1], the Mechanism of effect entry was “Potassium canal activator”. Further, in assay [1], the Selectivity result is reported as “selective”. Moreover, the Average arterial tension with normotensive rats (setting [3]) was 112 ± 9; with normotensive rats (1 mg/kg i.d., time 1 min), 45 ± 2; in the assay on normotensive rats (1 mg/kg i.d., time 10 min) it was 45 ± 2; in the assay on normotensive rats (1 mg/kg i.d., time 30 min) it was 49 ± 4; in the assay with normotensive rats (1 mg/kg i.d., time 60 min), 61 ± 11. Moreover, the Pulse in the assay on normotensive rats (setting [3]) is 368 ± 44; with normotensive rats (1 mg/kg i.d., time 1 min), 368 ± 31; in the assay with normotensive rats (1 mg/kg i.d., time 10 min) it was 382 ± 25; with normotensive rats (1 mg/kg i.d., time 30 min), 377 ± 19; in the assay with normotensive rats (1 mg/kg i.d., time 60 min), 373 ± 12. Also, the “Decrease (of average arterial tension)” value in the assay with normotensive rats (1 mg/kg i.d., time 1 min) was -67; in the assay with normotensive rats (1 mg/kg i.d., time 10 min) it was -67; in the assay on normotensive rats (1 mg/kg i.d., time 30 min), -63; with normotensive rats (1 mg/kg i.d., time 60 min) it was -51.

With `COc1cc2c(cc1[N+](=O)[O-])[C@@H](N1CCCC1=O)[C@H](O)C(C)(C)O2` (relative stereo) [Example 11], the Mechanism of effect result in assay [1] is on record as “Potassium canal activator”. The Selectivity result in assay [1] is listed as “selective”. The Average arterial tension in the assay with normotensive rats (setting [3]) stood at 121 ± 21; in the assay with normotensive rats (1 mg/kg i.d., time 1 min), 115 ± 11; with normotensive rats (1 mg/kg i.d., time 10 min), 97 ± 23; with normotensive rats (1 mg/kg i.d., time 30 min) it was 105 ± 18; with normotensive rats (1 mg/kg i.d., time 60 min), 107 ± 12. Moreover, the Pulse in the assay on normotensive rats (setting [3]) was found to be 388 ± 10; with normotensive rats (1 mg/kg i.d., time 1 min) it was 373 ± 15; in the assay with normotensive rats (1 mg/kg i.d., time 10 min) it was 394 ± 20; in the assay on normotensive rats (1 mg/kg i.d., time 30 min), 382 ± 18; in the assay on normotensive rats (1 mg/kg i.d., time 60 min), 382 ± 18. The “Decrease (of average arterial tension)” value with normotensive rats (1 mg/kg i.d., time 1 min) was -6; in the assay on normotensive rats (1 mg/kg i.d., time 10 min) it was -24; in the assay on normotensive rats (1 mg/kg i.d., time 30 min) it was -16; in the assay with normotensive rats (1 mg/kg i.d., time 60 min), -14.

Turning to `COc1cc2c(cc1C#N)[C@@H](N1CCCC1=O)[C@H](O)C(C)(C)O2` (racemic) [Example 15, (+/-)-6-cyano-7-methoxy-3,4-dihydro-2,2-dimethyl-trans-4-(2-oxo-1-pyrrolidinyl)-2H-benzo (b) pyran-3-ol], in assay [1], the Mechanism of effect result is reported as “Potassium canal activator”. Besides, in assay [1], the Selectivity result is “selective”. The Average arterial tension came out at 125 ± 13 in the assay on normotensive rats (setting [3]); 92 ± 10 with normotensive rats (1 mg/kg i.d., time 1 min); 103 ± 5 in the assay on normotensive rats (1 mg/kg i.d., time 10 min); 118 ± 15 with normotensive rats (1 mg/kg i.d., time 30 min); 122 ± 10 with normotensive rats (1 mg/kg i.d., time 60 min). Moreover, the Pulse in the assay with normotensive rats (setting [3]) worked out at 412 ± 45; in the assay on normotensive rats (1 mg/kg i.d., time 1 min), 439 ± 42; in the assay with normotensive rats (1 mg/kg i.d., time 10 min), 430 ± 45; with normotensive rats (1 mg/kg i.d., time 30 min), 430 ± 45; in the assay with normotensive rats (1 mg/kg i.d., time 60 min), 412 ± 37. Further, the “Decrease (of average arterial tension)” value with normotensive rats (1 mg/kg i.d., time 1 min) is reported as -33; in the assay with normotensive rats (1 mg/kg i.d., time 10 min), -22; in the assay on normotensive rats (1 mg/kg i.d., time 30 min), -7; with normotensive rats (1 mg/kg i.d., time 60 min), -3.

`COc1cc2c(cc1Br)[C@@H](N1CCCC1=O)[C@H](O)C(C)(C)O2` (relative stereo) [Example 9, (+/-) 16-bromo-7-methoxy-3,4-dihydro-2,2-dimethyl-trans-4-(2-oxo-1-pyrrolidinyl)-2H-benzo (b) pyran-3-ol]: the Mechanism of effect result in assay [1] is “Potassium canal activator”. Further, in assay [1], the Selectivity result is reported as “selective”. The Average arterial tension in the assay on normotensive rats (setting [4]) came to 117 ± 19; in the assay with normotensive rats (10 mg/kg i.d., time 1 min), 119 ± 16; in the assay on normotensive rats (10 mg/kg i.d., time 10 min), 58 ± 5; in the assay on normotensive rats (10 mg/kg i.d., time 30 min) it was 65 ± 15; in the assay with normotensive rats (10 mg/kg i.d., time 60 min), 87 ± 18. Further, the Pulse with normotensive rats (setting [4]) is recorded as 406 ± 51; with normotensive rats (10 mg/kg i.d., time 1 min) it was 406 ± 51; with normotensive rats (10 mg/kg i.d., time 10 min) it was 436 ± 62; in the assay with normotensive rats (10 mg/kg i.d., time 30 min), 430 ± 63; with normotensive rats (10 mg/kg i.d., time 60 min) it was 430 ± 63. In addition, the “Decrease (of average arterial tension)” value is reported as “+2” in the assay with normotensive rats (10 mg/kg i.d., time 1 min); -59 with normotensive rats (10 mg/kg i.d., time 10 min); -52 in the assay on normotensive rats (10 mg/kg i.d., time 30 min); -30 in the assay on normotensive rats (10 mg/kg i.d., time 60 min).

Turning to `COc1cc2c(cc1OC)[C@@H](N1CCCC1=O)[C@H](O)C(C)(C)O2` (racemic) [Example 1, (+/-)-6,7-dimethoxy-3,4-dihydro-2,2-dimethyl-trans-4-(2-oxo-1-pyrrolidinyl)-2H-benzo(b)pyran-3-ol], the Mechanism of effect entry in assay [1] is reported as “Potassium canal activator”. For the same compound, the Selectivity entry in assay [1] is “selective”. Further, the Average arterial tension is recorded as 107 ± 11 with normotensive rats (setting [3]); 56 ± 6 in the assay with normotensive rats (1 mg/kg i.d., time 1 min); 56 ± 6 with normotensive rats (1 mg/kg i.d., time 10 min); 49 ± 4 with normotensive rats (1 mg/kg i.d., time 30 min); 71 ± 20 in the assay on normotensive rats (1 mg/kg i.d., time 60 min). Further, the Pulse was 394 ± 27 in the assay on normotensive rats (setting [3]); 403 ± 34 in the assay on normotensive rats (1 mg/kg i.d., time 1 min); 400 ± 31 with normotensive rats (1 mg/kg i.d., time 10 min); 400 ± 31 in the assay on normotensive rats (1 mg/kg i.d., time 30 min); 382 ± 31 in the assay on normotensive rats (1 mg/kg i.d., time 60 min). The “Decrease (of average arterial tension)” value with normotensive rats (1 mg/kg i.d., time 1 min) was -51; with normotensive rats (1 mg/kg i.d., time 10 min) it was -51; in the assay on normotensive rats (1 mg/kg i.d., time 30 min) it was -45; in the assay with normotensive rats (1 mg/kg i.d., time 60 min), -36.
